Source: publication PMC6614837 (Nucleic Acids Research, 2019)
Entries after “also recorded” stand apart in the source; their conditions may differ.

Key:
P protein = target: T1, P protein (Thermotoga maritima, UniProt Q9X1H4); experiment: Binding hindrance of the 5′ RNA leader to the P protein (BLI); design: species or system T. maritima; settings: compound 100 μM, 5′ RNA leader 5 μM
T1 construct: GST (cleaved yes); made in house; host or cells: E. coli BL21(DE3)pLysS
T1 sequence (Q9X1H4 1-117): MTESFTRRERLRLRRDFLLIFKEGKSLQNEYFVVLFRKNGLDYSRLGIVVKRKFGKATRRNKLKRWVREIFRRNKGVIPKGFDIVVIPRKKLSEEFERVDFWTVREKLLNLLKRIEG
Protocol: A 5′ RNA leader sequence with 10-bases 5′-GGAAAAAGAU-3′ was purchased from IDT and used at a concentration of 5 μM. This sequence is the same used to obtain the crystal structure of the RNase P holoenzyme ([19]). The His-tagged P protein was immobilized on Ni-NTA biosensors at 0.05 mg/ml (3.4 μM). […] The steps performed on the assay and their periods were: P protein immobilization (400 s), wash (100 s), baseline […] (1000 rpm), compound association (800 s), compound dissociation (200 s) (500 rpm), baseline (100 s), 5′ leader association (200 s), 5′ leader dissociation (200 s) (1000 rpm). The assay was performed at 30°C. The compounds were used at 100 μM throughout. All assay steps were performed in 20 mM HEPES pH 7.4, 100 mM ammonium acetate, 10 mM MgCl2, 5% DMSO.
5 ′ RNA leader. (A) Experimental design of 5′ RNA leader binding hindrance experiments. Figures B-F are based on the analysis region depicted in panel A, where association and dissociation of the 5′ RNA leader to the P protein (TmP) is measured over time. P protein at 3.5 µM was immobilized on Ni-NTA biosensors for 300 s, while compounds were assayed at 100 µM and the […]
binding, in contrast with hematein (E) and purpurin (F).
(1 picture or pasted object on this page, not shown here)

RNase P holoenzyme = target: T2, RNase P holoenzyme (Thermotoga maritima, UniProt Q9X1H4); experiment: Displacement of pre-tRNA from the holoenzyme (BLI); type: binding, T. maritima; settings: holoenzyme on Ni-NTA biosensors, compound 0–400 μM, then pre-tRNA
T2 construct: GST (cleaved yes); made in house; host or cells: E. coli BL21(DE3)pLysS
T2 sequence (Q9X1H4 1-117): T1 sequence (Q9X1H4 1-117)
Protocol: Real-time binding assays of the holoenzyme, P RNA, P protein, the substrate minihelix and the 5′-leader to individual compounds were performed by biolayer interferometry using an Octet RED96 system (ForteBio). For the holoenzyme or P RNA, a 5′ biotinylated RNA oligonucleotide with the sequence 5′biotin-CAUUCCAGACGAU was immobilized on Super Streptavidin (SSA) biosensors. Then, a modified P RNA or holoenzyme was added. The P RNA modification consisted of a sequence with part of the P1 stem sequence complementary to the biotinylated oligonucleotide (AUCGUCUGGA) (Supplementary Figure S23A). P1 is far from the active site or other regions involved in specific interactions (Supplementary Figure S23B) ([19]). The activity of this construct was indistinguishable from the wild-type holoenzyme. Alternatively, the holoenzyme was immobilized through the His-tagged P protein from T. maritima at 0.05 mg/ml (3.4 μM) on Ni-NTA biosensors. Control biosensors were used to subtract non-specific binding of compounds to the biosensor surface. All assay steps (immobilization, wash, baseline, association, and dissociation) were performed in 20 mM HEPES pH 7.4, 100 mM ammonium acetate, 10 mM MgCl2, 2.5% DMSO. The assays were performed on black bottom 96-well microplates (Greiner Bio-One 655209) in a total volume of 200 μl, at 30°C with orbital shaking at 1000 rpm. Experiments were controlled with the software Data Acquisition 8.2 (ForteBio, Inc.). Kinetic binding parameters were calculated using Data Analysis 8.2 (ForteBio, Inc.). After subtraction of reference biosensors, the binding curves were aligned to the X- and Y-axis and the association-dissociation inter-step curve in order to get a common baseline for the association and dissociation phases.
Figure 4. Characterization of the inhibition of T. maritima RNase P by purpurin. (A) Best global fit for inhibition of RNase P in the presence of varying concentrations of fluorescent Mh substrate. […] Symbols represent the mean ± standard error as determined from three independent experiments at each concentration. See also Supplementary Figure S18. […] Binding sensorgrams obtained by biolayer interferometry (BLI). RNase P holoenzyme at 400 nM was immobilized on Ni-NTA. […] Binding sensorgrams obtained by biolayer interferometry (BLI). RNase P holoenzyme was immobilized on Ni-NTA biosensors, incubated with purpurin at varying concentrations (0–400 μM), and then the association and dissociation pre-tRNA was monitored. […] See also Supplementary Figure S17.

[1] = tested on: 3'-biotinylated minihelix (Mh; pMini3bpUG) (RNA, hairpin) GAUCUGAAUGCGGAAACGCGCCAC; experiment: biolayer interferometry; settings: Mg2+ 10 mM, NH4+ 100 mM (ammonium acetate); 20 mM HEPES pH 7.4, DMSO, 30°C; highest concentration tested 1 mM

Structure (SMILES) | Hindrance of 5′ RNA leader binding to the P protein (P protein) | Hindrance of 5′ RNA leader binding to the P protein (P protein; listed as hematein) | Dose–response displacement of pre-tRNA (RNase P holoenzyme) | binding [1] | Hindrance of 5′ RNA leader binding to the P protein (P protein; listed as purpurin)
O=C1C=C2CC3(O)COc4c(ccc(O)c4O)C3=C2C=C1O (centres unmarked) [Hematein, 3,4,6a,10-tetrahydroxy-6a,7-dihydroindeno[2,1-c]chromen-9(6H)-one] | hinder the binding of the P protein | displayed leader-binding hindrance | No | no | 
O=C1C=CC(=O)c2c(O)cccc21 [Juglone, 5-hydroxy-1,4-naphthoquinone] | do not impede the leader binding |  | No | no | 
O=C1c2ccccc2C(=O)c2c(O)c(O)cc(O)c21 [Purpurin, 1,2,4-trihydroxyanthraquinone] | hinders the binding of the P protein to the 5′ RNA leader |  | displaces bound pre-tRNA in a dose-response behavior and Yes | no | hinder the binding of the P protein; also recorded: interferes with the binding of the leader to the P protein
